Earlier results as cited in US10478472B2, “Combination of tolerogenic peptides and TFG-B for use in the induction and maintenance of oral tolerance in young mammals” (NESTEC S.A., priority 2015, dated 2019).

Details: identified as part of a longer peptide sequence in WO2000/42863

Substance: EVDDEALEK (listed as Bos taurus) [SEQ ID No. 8, BLG peptide, position 143-151]
- inducers of oral tolerance: inducers of oral tolerance

Substance: IDALNENK (listed as Bos taurus) [SEQ ID No. 6, BLG peptide, position 100-107]
- inducers of oral tolerance: inducers of oral tolerance

Substance: VLDTDY (listed as Bos taurus) [SEQ ID No. 7, BLG peptide, position 110-115]
- inducers of oral tolerance: inducers of oral tolerance
